Test results from PubChem BioAssay (NCI).
“And” between values parts separate entries of the source, which are not always exact repeats. Equal entries are not always repeated.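 Cells were grown in 96-well plates and exposed to each compound for 48 hours at five concentrations; endpoints were interpolated linearly between bracketing concentrations, or set to the highest concentration if not reached. The concentration for 50% growth inhibition is given as GI50. The concentration for full growth arrest is given as TGI.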

Columns and labels:
Experiment in all cases: inhibition of tumour cell growth, NCI panel, 48 h
NCI/ADR-RES ovarian = test system: NCI/ADR-RES ovarian
EKVX NSCLC = test system: EKVX NSCLC
OVCAR-3 ovarian = test system: OVCAR-3 ovarian
UO-31 renal = test system: UO-31 renal
BT-549 breast = test system: BT-549 breast
RXF 393 renal = test system: RXF 393 renal
KM12 colon = test system: KM12 colon
SR leukemia = test system: SR leukemia
COLO 205 colon = test system: COLO 205 colon
A498 renal = test system: A498 renal
SW-620 colon = test system: SW-620 colon
LOX IMVI melanoma = test system: LOX IMVI melanoma
MDA-MB-435 = test system: MDA-MB-435

SMILES	TGI (NCI/ADR-RES ovarian) [µM]	TGI (EKVX NSCLC)	TGI (OVCAR-3 ovarian)	TGI (UO-31 renal) [µM]	TGI (BT-549 breast) [µM]	TGI (RXF 393 renal) [µM]	TGI (KM12 colon) [µM]	TGI (SR leukemia)	TGI (COLO 205 colon)	TGI (A498 renal) [µM]	TGI (SW-620 colon)	TGI (LOX IMVI melanoma) [µM]	TGI (MDA-MB-435) [µM]	GI50 (COLO 205 colon)
COc1ccc(N2C(=O)C3ON(C(C(N)=O)c4ccccc4)C(c4ccc(-c5ccccc5)cc4)C3C2=O)cc1 (configuration not stated)	> 50	> 50 µM	> 50 µM	> 50	> 50	> 50	> 50	> 50 µM	> 50 µM	> 50	> 50 µM	> 50	> 50	–
CCCCCCOc1ccc(C(=O)NOCc2ccccc2)cc1	> 100	> 100 µM	> 100 µM	> 100	> 100	> 100	> 100	67.4 µM	> 100 µM	> 100	> 100 µM	> 100	> 100	–
O=C1C(CN2CCCCC2)CCCC1CN1CCCCC1 (configuration not stated)	55.9	38 µM and 39.8 µM	32.1 µM and 34 µM	> 68.4	30.9	31.6	> 100	43.9 µM and 47.2 µM	> 56.9 µM and 16.1 µM	> 100	24.6 µM and 13.7 µM	> 57.2	30.9	25.5 µM and 8.41 µM
O=[N+]([O-])c1cccc2nc3ccccc3c(NCCc3cccc[n+]3[O-])c12	8.67	0.121 µM	0.11 µM	–	0.0917	0.11	0.552	0.161 µM	< 0.0168 µM	0.225	0.197 µM	0.121	< 0.0184	–
CN1CN(c2ccccc2)C2(CCN(CCCSc3ccccc3NC(=O)/C=C/c3ccccc3)CC2)C1=O	22.4	44.5 µM	13.3 µM	14.1	12	31.9	17.9	12.3 µM	4.53 µM	6.98	26.3 µM	4.61	6.91	–
COC(=O)C(O)P(=O)(OC)OC (configuration not stated)	> 100	> 100 µM	> 100 µM	> 100	> 100	> 100	> 100	> 100 µM	> 100 µM	> 100	> 100 µM	> 100	> 100	–
CC(C)(C)N(Cc1ccc2c(c1)OCO2)C(=O)/C=C\S(=O)c1ccccc1 (configuration not stated)	10.2	20.9 µM	7.4 µM	7.93	10.3	8.22	14	> 27.7 µM	8.75 µM	21.4	17.5 µM	7.51	9.74	–
Cc1ccc(-c2c(C#N)c(S)n(NS(=O)(=O)c3ccc(C)cc3)c(=O)c2C#N)cc1	77.9	> 100 µM	> 100 µM	38.5	47.8	97.5	35.2	> 100 µM	> 100 µM	> 100	39.3 µM	> 100	52.8	–
CC(C)C1(C)N=C(C(F)(F)F)c2cc(C(=O)C(F)(F)F)c3ccccc3c2N1 (configuration not stated)	9.09	18.4 µM	10.6 µM	14.1	10.7	10.1	12.7	> 100 µM	15.8 µM	28.7	> 51.6 µM	7.01	11.3	–
CN(NC(=O)CCCl)C1=NCCN1	> 100	> 100 µM	> 100 µM	> 100	> 100	> 100	> 100	> 100 µM	> 100 µM	> 100	> 100 µM	> 100	> 100	–
O=C1/C(=C\c2cccc(Oc3ccccc3)c2)S(=O)(=O)C(c2ccccc2)N1c1ccc(Cl)cc1 (configuration not stated)	54.1	84.5 µM	32.7 µM	26.8	49.9	29.4	> 100	40 µM	28.2 µM	> 100	34.4 µM	27.8	25.4	–
CCc1n[nH]c(=O)n1/N=C/c1ccccc1Cl	> 100	29.4 µM	> 100 µM	> 100	> 100	> 100	> 100	> 100 µM	> 100 µM	> 100	> 100 µM	> 100	> 100	–
S=C(N/N=C(/c1ccccc1)c1ccccn1)Nc1ccccc1Cl	5.18	9.92 µM	11.2 µM	5.96	17.3	4.24	16.2	3.04 µM	2.31 µM	7.19	14.8 µM	23.3	8.77	–
CCCCC(=O)Nc1ccc2cc(C(=O)OC)c(ON3C(=O)c4ccccc4C3=O)nc2n1	> 100	> 100 µM	> 100 µM	44.4	> 100	52.3	> 100	> 100 µM	> 100 µM	> 100	> 100 µM	> 100	> 100	–
CCNC1(c2cccc(C)c2)OC(C)(C)c2cccc3cccc1c23 (configuration not stated)	42.6	38 µM	33.2 µM	29.8	37.2	32.1	69.8	35.9 µM	34 µM	32.2	36.6 µM	32.6	33.2	–
N#Cc1c(-c2ccc([N+](=O)[O-])cc2)cc(-c2ccc(Nc3ccnc4cc(C(F)(F)F)ccc34)cc2)nc1N	35.3	> 93.3 µM	29.3 µM	36.5	> 75.6	51.7	> 47.9	> 20 µM	> 75.9 µM	> 71.3	59.2 µM	> 63.3	33.3	–
CN(C)c1ccc(/C=C(\C#N)C(N)=C(C#N)C#N)cc1	> 100	> 100 µM	> 100 µM	> 100	> 100	> 100	> 100	> 100 µM	> 100 µM	> 100	> 100 µM	> 100	> 100	–
O=C/C(=C(/Br)I)c1ccccc1	15.2	28.6 µM	7.65 µM	9.32	4.86	7.2	19	2.3 µM	14.3 µM	33.9	2.75 µM	10.9	6.74	–
Cc1c(CCOC=O)c(=O)[nH]c2nncn12	> 100	> 100 µM	> 100 µM	> 100	> 100	> 100	> 100	> 100 µM	> 100 µM	> 100	> 100 µM	> 100	> 100	–
CC(C)(C)c1ccc(-c2nc3ccc([N+](=O)[O-])cc3c(=O)o2)cc1	79.8	> 100 µM	81.1 µM	93.8	76.9	96.7	69.9	68.7 µM	71.9 µM	73.9	> 100 µM	29.9	77	–
CC(=O)C(=[N+]=[N-])C(=O)OC(C)(C)C#N	> 10	> 10 µM	> 10 µM	> 10	> 10	> 10	> 10	> 10 µM	> 10 µM	> 10	> 10 µM	> 10	> 10	–
Cc1ccc(S(=O)(=O)NN=C2CCCCCCCCCCC2)cc1	> 100	> 100 µM	> 100 µM	> 100	> 100	> 100	> 100	> 100 µM	> 100 µM	> 100	> 100 µM	> 100	> 100	–
O=C1NC(Cc2c[nH]c3ccccc23)C(=O)N2C(C3CCCCC3)c3[nH]c4ccccc4c3C[C@@H]12 (some centres not stated)	41.2	57.2 µM	6.58 µM	33.2	40.8	21.2	31.4	34 µM	34.9 µM	37.5	73.7 µM	28.1	24.6	–
COC(=O)C1(Cc2ccc3c(c2)CCC3)Cc2ccc3c(c2C1O)CCC3 (configuration not stated)	35.9	32 µM	27.7 µM	22.5	29.5	31	38.9	> 100 µM	25.6 µM	25.1	30.2 µM	26.2	27.5	–
COc1ccc(/C=C2\C[C@H]3[C@@H]4CCC5=C[C@@H](N6CCCC6)CC[C@]5(C)[C@H]4CC[C@]3(C)[C@H]2O)cc1	16.8	17 µM	8.26 µM	3.26	14.1	3.29	8.02	6.32 µM	3.54 µM	3.2	–	3.61	4.47	–
C[C@]12CC[C@@H]3c4cc(OCC(F)(F)F)c(O)cc4C(=O)C[C@H]3[C@@H]1CC[C@@H]2O	> 31.3	> 100 µM	7.59 µM	> 100	> 100	58.5	> 64.4	> 100 µM	> 84.5 µM	> 100	> 100 µM	> 100	> 25.4	–
